Source: patent publication US11613560B2, “Bicyclic peptide ligands specific for OX40” (BicycleTx Limited, priority 2019, dated 2023)

Columns and labels:
OX40 = target: T1, OX40 (Homo sapiens, UniProt P43489); assay: Promega OX40 cell-activity assay in co-culture with tumor cells (Nectin-4 positive 4T1-D02); format: cell-based; conditions: co-culture with Nectin-4 positive 4T1-D02 cells; compared to OX40L and non-binding control BCY12968
T1 construct: host or cells: OX40 Jurkat cells (NF-kB luciferase reporter)
T1 sequence (P43489 29-277): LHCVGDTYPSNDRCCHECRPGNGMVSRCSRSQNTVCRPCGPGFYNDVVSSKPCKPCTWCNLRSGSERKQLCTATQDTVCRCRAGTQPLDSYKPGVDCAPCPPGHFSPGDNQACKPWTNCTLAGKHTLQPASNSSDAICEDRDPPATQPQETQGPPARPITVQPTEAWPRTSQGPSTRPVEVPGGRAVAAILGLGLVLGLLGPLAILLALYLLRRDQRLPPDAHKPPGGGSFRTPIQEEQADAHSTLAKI
Method: Promega have developed an OX40 cell-activity assay that uses NF-κB luciferase luminescence as a read-out of OX40 activation in Jurkat cells (Promega CS197704). On the day of the experiment, prepare medium by thawing FBS and adding 5% FBS to RPMI-1640. Thaw OX40 Jurkat cells in the water-bath and then add 500 μl cells to 11.5 ml pre-warmed 5 FBS RPMI-1640 medium. Add 55 μl cells/well to white cell culture plates. Harvest tumor cells from culture. 4T1 is a Nectin-4 negative murine mammary gland epithelial cancer cell and it was genetically modified to express murine Nectin-4 on the cell surface (4T1 Nectin-4 positive; clone 4T1-D02). Tumor cells were cultured to 80% confluency in vitro in RPMI1640 medium supplemented with 10% heat-inactivated FBS, 1× Penicillin/Streptomycin, 1×L-Glutamine, 20 mM HEPES and 1×NEAA (RPMI working medium). Tumor cells were trypsinized and washed two times at 1500 rpm for 5 minutes in RPMI1640 working medium prewarmed to 37° C. Count cells and resuspend at 2,000,000 cells/mL in R5 media (for 10,000 cells/well). Add 5 μL of tumour cells per well.
Proceed to dilute agonists at concentration giving the maximum fold induction and then titrate down the amount in a sterile 96 well-plate. Prepare enough reagent for duplicate samples and then perform ⅓ dilution series or 1/10 dilution series. Include positive control OX40L trimer (AcroBiosystems, R&D systems) and negative control monomeric or non-binding peptides. Add 20 μl of agonist as duplicate samples or 5% FBS RPMI-1640 alone as background control.
Co-incubate cells together with agonists for 6 hours at 37° C., 5% CO2. After 6 hours, thaw Bio-Glo™ and develop the assay at room-temperature. Add 80 μl Bio-Glo™ per well and incubate 5-10 min. Read luciferase signal on CLAIROStar plate-reader using the MARS program and normalize the fold induction relative to background (medium alone). Analyse data by transforming the data to x=log (X), then plot log (agonist) vs. response variable slope (4 parameters) to calculate EC50 values.

human PBMCs = assay: Human PBMC - tumor cell co-culture assay (IL-2 by HTRF); format: cell-based; conditions: anti-CD3 and anti-CD28 stimulation, 48 hours
Method: 4T1, a Nectin-4 negative murine mammary gland epithelial cancer cell (4T1 Nectin-4 −ve; 4T1-Parental) and its genetically modified version expressing murine Nectin-4 on the cell surface (4T1 Nectin-4 +ve; clone 4T1-D02) were cultured to 80% confluency in vitro in RPMI1640 medium supplemented with 10% heat-inactivated FBS, 1× Penicillin/Streptomycin, 1× L-Glutamine, 20 mM HEPES and 1×NEAA (RPMI working medium). Tumor cells were trypsinized and washed two times at 1500 rpm for 5 minutes in RPMI1640 working medium prewarmed to 37° C. Four thousand tumor cells in 25 μl were plated per well in a sterile 384 well cell culture plate. Frozen human PBMCs were thawed and washed one time at 1250 rpm for 5 minutes in prewarmed RPMI1640 working medium. 20000 viable PBMCs in 50 μl RPMI1640 working medium supplemented with 250 ng/ml (2× concentration) of human anti-CD3 (clone OKT3) and 500 ng/ml (2× concentration) of human anti-CD28 (clone CD28.2) were added per respective wells containing tumor cells in 25 μl medium to obtain a […] ratio for tumor cells and PBMCs. Test compounds in DMSO were diluted in RPMI1640 working medium. An equivalent amount of DMSO was added to assay controls. […] Culture supernatant was collected at 48 hours post-treatment, and IL-2 concentrations were measured using HTRF assays (CIS Bio). Data were analyzed using GraphPad Prism.

Row | Compound | OX40 agonism in co-culture (OX40) | IL-2 levels (human PBMCs; 4T1 cells without Nectin-4 expression) | production of the cytokine IL-2 by human PBMCs (human PBMCs; Nectin-4 expressing 4T1 cells)
1 | CSCC[C@@H]1NC(=O)[C@@H]2CSCCC(=O)N3CN(CN(C3)C(=O)CCSC[C@H](NC(=O)CCOCCOCCOCCOCCOCCOCCOCCOCCOCCOCCOCCOCCn3cc(CCC(=O)NCCCC[C@H](NC(=O)[C@H](C)NC(=O)[C@@H]4CSCCC(=O)N5CN6CN(C5)C(=O)CCSC[C@H](NC(=O)[C@@H]5CCCN5C(=O)[C@H](CO)NC(=O)[C@H](Cc5ccc(O)cc5)NC(=O)[C@H](CC(C)C)NC(=O)[C@@H](NC(=O)[C@H](C)N)CSCCC6=O)C(=O)N[C@@H](Cc5c[nH]c6ccccc56)C(=O)N[C@@H](Cc5c[nH]cn5)C(=O)N5CCC[C@H]5C(=O)N[C@@H](CC(C)C)C(=O)N[C@@H](CC(N)=O)C(=O)N[C@@H](CC(=O)O)C(=O)N4)C(N)=O)nn3)C(=O)N3CCC[C@H]3C(=O)N[C@@H](Cc3cccc4ccccc34)C(=O)N[C@H](CC(=O)O)C(=O)N2)C(=O)CCSC[C@@H](C(N)=O)NC(=O)[C@H](Cc2c[nH]c3ccccc23)NC(=O)[C@@H]2C[C@@H](O)CN2C(=O)[C@@H]2CCCN2C(=O)[C@H]([C@@H](C)O)NC(=O)[C@H](CO)NC(=O)[C@H](Cc2c[nH]c3ccccc23)NC(=O)[C@H](CC(=O)O)NC(=O)[C@H](CCCCNC(=N)N)NC1=O [BCY12141] | potent OX40 agonism | comparable to the control baseline CD3+CD28 stimulation | induced the production of the cytokine IL-2
2 | CSCC[C@@H]1NC(=O)[C@@H]2CSCCC(=O)N3CN(CN(C3)C(=O)CCSC[C@H](NC(=O)CCOCCOCCOCCOCCOCCn3cc(CCC(=O)NCCCC[C@H](NC(=O)[C@H](C)NC(=O)[C@@H]4CSCCC(=O)N5CN6CN(C5)C(=O)CCSC[C@H](NC(=O)[C@@H]5CCCN5C(=O)[C@H](CO)NC(=O)[C@H](Cc5ccc(O)cc5)NC(=O)[C@H](CC(C)C)NC(=O)[C@@H](NC(=O)[C@H](C)NC(C)=O)CSCCC6=O)C(=O)N[C@@H](Cc5c[nH]c6ccccc56)C(=O)N[C@@H](Cc5c[nH]cn5)C(=O)N5CCC[C@H]5C(=O)N[C@@H](CC(C)C)C(=O)N[C@@H](CC(N)=O)C(=O)N[C@@H](CC(=O)O)C(=O)N4)C(N)=O)nn3)C(=O)N3CCC[C@H]3C(=O)N[C@@H](Cc3cccc4ccccc34)C(=O)N[C@H](CC(=O)O)C(=O)N2)C(=O)CCSC[C@@H](C(N)=O)NC(=O)[C@H](Cc2c[nH]c3ccccc23)NC(=O)[C@@H]2C[C@@H](O)CN2C(=O)[C@@H]2CCCN2C(=O)[C@H]([C@@H](C)O)NC(=O)[C@H](CO)NC(=O)[C@H](Cc2c[nH]c3ccccc23)NC(=O)[C@H](CC(=O)O)NC(=O)[C@H](CCCCNC(=N)N)NC1=O [BCY12721] | potent OX40 agonism |  | 
3 | CSCC[C@@H]1NC(=O)[C@@H]2CSCCC(=O)N3CN(CN(C3)C(=O)CCSC[C@H](NC(=O)CCOCCOCCOCCN(CCOCCOCCOCCn3cc(CCC(=O)NCCCC[C@H](NC(=O)[C@H](C)NC(=O)[C@@H]4CSCCC(=O)N5CN6CN(C5)C(=O)CCSC[C@H](NC(=O)[C@@H]5CCCN5C(=O)[C@H](CO)NC(=O)[C@H](Cc5ccc(O)cc5)NC(=O)[C@H](CC(C)C)NC(=O)[C@@H](NC(=O)[C@H](C)N)CSCCC6=O)C(=O)N[C@@H](Cc5c[nH]c6ccccc56)C(=O)N[C@@H](Cc5c[nH]cn5)C(=O)N5CCC[C@H]5C(=O)N[C@@H](CC(C)C)C(=O)N[C@@H](CC(N)=O)C(=O)N[C@@H](CC(=O)O)C(=O)N4)C(N)=O)nn3)CCOCCOCCOCCn3cc(CCC(=O)NCCCC[C@H](NC(=O)[C@H](C)NC(=O)[C@@H]4CSCCC(=O)N5CN6CN(C5)C(=O)CCSC[C@H](NC(=O)[C@@H]5CCCN5C(=O)[C@H](CO)NC(=O)[C@H](Cc5ccc(O)cc5)NC(=O)[C@H](CC(C)C)NC(=O)[C@@H](NC(=O)[C@H](C)N)CSCCC6=O)C(=O)N[C@@H](Cc5c[nH]c6ccccc56)C(=O)N[C@@H](Cc5c[nH]cn5)C(=O)N5CCC[C@H]5C(=O)N[C@@H](CC(C)C)C(=O)N[C@@H](CC(N)=O)C(=O)N[C@@H](CC(=O)O)C(=O)N4)C(N)=O)nn3)C(=O)N3CCC[C@H]3C(=O)N[C@@H](Cc3cccc4ccccc34)C(=O)N[C@H](CC(=O)O)C(=O)N2)C(=O)CCSC[C@@H](C(N)=O)NC(=O)[C@H](Cc2c[nH]c3ccccc23)NC(=O)[C@@H]2C[C@@H](O)CN2C(=O)[C@@H]2CCCN2C(=O)[C@H]([C@@H](C)O)NC(=O)[C@H](CO)NC(=O)[C@H](Cc2c[nH]c3ccccc23)NC(=O)[C@H](CC(=O)O)NC(=O)[C@H](CCCCNC(=N)N)NC1=O [BCY12967] | potent OX40 agonism |  | 
